Entries after “also recorded” stand apart in the source; their conditions may differ.
Tests used:
[1] = test system: Human breast adenocarcinoma cell line (MCF-7 (HTB-22)); test: 3H-thymidine uptake assay, breast cancer cell line; format: cell-based; conditions: for Average Cpm / Cpm 1 / Cpm 2 / Cpm 3 / dose proportionality of the effect alone, percent inhibition of 3H-uptake (FIG. 4): MCF-7; for Average Cpm / Cpm 1 / Cpm 2 / Cpm 3: 24 hours post treatment; for dose proportionality of the effect alone, percent inhibition of 3H-uptake (FIG. 4): drug alone at lower doses
Method: The cells were passaged onto 24-well plates at a concentration of 50,000 cells/well, in total medium volume of 1 mL (DMEM+10% FBS+0.01 mg/mL insulin+antibiotics). The cells were then allowed to attach and were incubated from 24 hours before treatment. Cells were then treated, in triplicate, with various concentrations of treatment articles. ^3H-thymidine (1 mCi/mL) was diluted to 1 μCi in 5 μL of medium (DMEM+10% FBS+0.01 mg/mL insulin+antibiotics) and then added to each well at 18-hr post treatment. […] Each well of cells was then lysed in 0.5 mL of 0.5N NaOH+0.5% SDS. Lysate was then transferred to scintillation tubes containing 1 mL if scintillation fluid for counting (3 min/sample).

[2] = cited from earlier work
[3] = test system: Human kidney clear cell carcinoma cell line Caki-I (HTB-46); test: 3H-thymidine uptake assay, renal cell carcinoma; format: cell-based; conditions: for Average Cpm / Cpm 1 / Cpm 2 / Cpm 3: Caki-I, 24 hours post treatment; for Average cpm: pilot plating
Method: Pilot plating experiments using Human kidney clear cell carcinoma cell line Caki-I (HTB-46). […] 0.1% DMSO, the test article solvent, in media was the control.
The cells were passaged onto 24-well plates at a concentration of 30,000 cells/well, in total medium volume of 1 mL (RPMI 1640+10% FBS+antibiotics). The cells were then allowed to attach and were incubated from 24 hours before treatment. Cells were then treated, in triplicate, with various concentrations of treatment articles.
^3H-thymidine (1 mCi/mL) was diluted to 1 μCi in 5 μL of medium (RPMI 1640+10%/FBS+antibiotics) and then added to each well at either 18- or 42-hr post treatment, for the 24- and 48-hr time points respectively.
Cells were then washed three times with 1 ML of DPBS at 24- or 48-hr post treatment to remove unincorporated ^3H-thymidine. Each well of cells was then lysed in 0.5 mL of 0.5N NaOH+0.5% SDS. Lysate was then transferred to scintillation tubes containing 1 mL if scintillation fluid for counting (3 min/sample).

[4] = test system: plaques, tangles, and cognitive defects; conditions: mice; given before the establishment of plaques and tangles in the brain; cited from earlier work

[H]/N=C(/N=C(N)N)N(C)C [Metformin, 1,1-Dimethylbiguanide]
Average Cpm ([1]; dosage 0.05 nM): 1144 cpm
Cpm 1 ([1]; dosage 0.05 nM): 1267 cpm
Cpm 2 ([1]; dosage 0.05 nM): 1123 cpm
Cpm 3 ([1]; dosage 0.05 nM): 1041 cpm
Average Cpm ([1]; dosage 0.1 nM): 2092 cpm
Cpm 1 ([1]; dosage 0.1 nM): 2238 cpm
Cpm 2 ([1]; dosage 0.1 nM): 2595 cpm
Cpm 3 ([1]; dosage 0.1 nM): 1444 cpm
Average Cpm ([1]; dosage 0.5 nM): 1084 cpm
Cpm 1 ([1]; dosage 0.5 nM): 1283 cpm
Cpm 2 ([1]; dosage 0.5 nM): 1048 cpm
Cpm 3 ([1]; dosage 0.5 nM): 921 cpm
dose proportionality of the effect alone, percent inhibition of 3H-uptake (FIG. 4) [1]: not dose proportional; also recorded: not dose-proportional
standard dose therapeutic serum Cmax ([2]; standard dose): 1-2 microgram/mL

CN(Cc1cnc2nc(N)nc(N)c2n1)c1ccc(C(=O)N[C@@H](CCC(=O)O)C(=O)O)cc1 [Methotrexate, N-[4-[[(2,4-diamino-6-pteridinyl)methyl]methylamino]benzoyl]L-glutamic acid]
Average Cpm ([3]; dosage 100 nM): 11414 cpm
Cpm 1 ([3]; dosage 100 nM): 10636 cpm
Cpm 2 ([3]; dosage 100 nM): 12192 cpm
Cpm 3 ([3]; dosage 100 nM): 4932 cpm
Average cpm ([3]; 2.5 nm, 24-hr post treatment): 30659 cpm
Average cpm ([3]; 2.5 nm, 48-hr post treatment): 4811 cpm
Average cpm ([3]; 5 nm, 24-hr post treatment): 31148 cpm
Average cpm ([3]; 5 nm, 48-hr post treatment): 16772 cpm
Average cpm ([3]; 10 nm, 24-hr post treatment): 27266 cpm
Average cpm ([3]; 10 nm, 48-hr post treatment): 20251 cpm
Average cpm ([3]; 20 nm, 24-hr post treatment): 26144 cpm
Average cpm ([3]; 20 nm, 48-hr post treatment): 11273 cpm

CO[C@H]1C[C@@H]2CC[C@@H](C)[C@@](O)(O2)C(=O)C(=O)N2CCCC[C@H]2C(=O)O[C@H]([C@H](C)C[C@@H]2CC[C@@H](O)[C@H](OC)C2)CC(=O)[C@H](C)/C=C(\C)[C@@H](O)[C@@H](OC)C(=O)[C@H](C)C[C@H](C)/C=C/C=C/C=C/1C [Rapamycin]
Average Cpm ([3]; dosage 1 nM): 10651 cpm
Cpm 1 ([3]; dosage 1 nM): 10730 cpm
Cpm 2 ([3]; dosage 1 nM): 9692 cpm
Cpm 3 ([3]; dosage 1 nM): 11531 cpm
Average Cpm ([3]; dosage 5 nM): 8758 cpm
Cpm 1 ([3]; dosage 5 nM): 8771 cpm
Cpm 2 ([3]; dosage 5 nM): 7473 cpm
Cpm 3 ([3]; dosage 5 nM): 10030 cpm
Average Cpm ([3]; dosage 10 nM): 9111 cpm
Cpm 1 ([3]; dosage 10 nM): 9861 cpm
Cpm 2 ([3]; dosage 10 nM): 8987 cpm
Cpm 3 ([3]; dosage 10 nM): 8486 cpm
Average cpm ([3]; 5 nm, 24-hr post treatment): 14805 cpm
Average cpm ([3]; 5 nm, 48-hr post treatment): 8584 cpm
Average cpm ([3]; 10 nm, 24-hr post treatment): 12611 cpm
Average cpm ([3]; 10 nm, 48-hr post treatment): 7463 cpm
Average cpm ([3]; 20 nm, 24-hr post treatment): 12044 cpm
Average cpm ([3]; 20 nm, 48-hr post treatment): 6349 cpm
inhibition at 0.0005 µM ([1]; Homo sapiens, MCF7, read-out: inhibitory effect (percent inhibition of 3H-uptake), rapamycin alone at 0.5 nM): 25%
inhibition at 0.001 µM ([1]; Homo sapiens, MCF7, read-out: inhibitory effect (percent inhibition of 3H-uptake), rapamycin alone at 1.0 nM): 32%
Average Cpm ([1]; dosage 0.1 nM): 1181 cpm
Cpm 1 ([1]; dosage 0.1 nM): 1041 cpm
Cpm 2 ([1]; dosage 0.1 nM): 1516 cpm
Cpm 3 ([1]; dosage 0.1 nM): 986 cpm
Average Cpm ([1]; dosage 0.5 nM): 2543 cpm
Cpm 1 ([1]; dosage 0.5 nM): 2537 cpm
Cpm 2 ([1]; dosage 0.5 nM): 2524 cpm
Cpm 3 ([1]; dosage 0.5 nM): 2567 cpm
Average Cpm ([1]; dosage 1 nM): 2294 cpm
Cpm 1 ([1]; dosage 1 nM): 3114 cpm
Cpm 2 ([1]; dosage 1 nM): 1220 cpm
Cpm 3 ([1]; dosage 1 nM): 2548 cpm
dose proportionality of the effect alone, percent inhibition of 3H-uptake (FIG. 4) [1]: not dose proportional; also recorded: not dose-proportional
standard therapeutic serum trough levels ([2]; considered clinically relevant for current uses): 5 to 20 ng/mL
effect on plaques, tangles, and cognitive defects [4]: significantly reduce plaques, tangles, and cognitive defects

From patent US11890274B2 (JMM LICENSING LLC, priority 2015, dated 2024)
